Experimental data reported in US20250179078A1, “INHIBITORS OF NLRP3” (PTC THERAPEUTICS, INC., priority 2022, published 2025).

Biological target: T1, NLRP3 (Homo sapiens, UniProt Q96P20)
T1 construct: host or cells: THP-1 cells differentiated with PMA
Test: IL-1β Secretion Assay (NLRP3-dependent IL1β secretion in THP1 cells)
Assay type: cell-based
Settings: PMA-differentiated THP-1 cells; compounds incubated 20 h; 2.5 μM Nigericin 3 h; HTRF IL-1β readout; read-out: IC50 IL-1β Inhibition
In short: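 THP-1 cells differentiated with 100 ng/mL PMA for 24 h, then given compound (7-point 3-fold series, 1:200 from DMSO) for 20 h in RPMI+5% FBS. NLRP3 activated with 2.5 μM nigericin for 3 h; secreted IL-1β measured by HTRF; IC50 from logistic fit of % inhibition.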

T1 sequence (Q96P20 whole entry): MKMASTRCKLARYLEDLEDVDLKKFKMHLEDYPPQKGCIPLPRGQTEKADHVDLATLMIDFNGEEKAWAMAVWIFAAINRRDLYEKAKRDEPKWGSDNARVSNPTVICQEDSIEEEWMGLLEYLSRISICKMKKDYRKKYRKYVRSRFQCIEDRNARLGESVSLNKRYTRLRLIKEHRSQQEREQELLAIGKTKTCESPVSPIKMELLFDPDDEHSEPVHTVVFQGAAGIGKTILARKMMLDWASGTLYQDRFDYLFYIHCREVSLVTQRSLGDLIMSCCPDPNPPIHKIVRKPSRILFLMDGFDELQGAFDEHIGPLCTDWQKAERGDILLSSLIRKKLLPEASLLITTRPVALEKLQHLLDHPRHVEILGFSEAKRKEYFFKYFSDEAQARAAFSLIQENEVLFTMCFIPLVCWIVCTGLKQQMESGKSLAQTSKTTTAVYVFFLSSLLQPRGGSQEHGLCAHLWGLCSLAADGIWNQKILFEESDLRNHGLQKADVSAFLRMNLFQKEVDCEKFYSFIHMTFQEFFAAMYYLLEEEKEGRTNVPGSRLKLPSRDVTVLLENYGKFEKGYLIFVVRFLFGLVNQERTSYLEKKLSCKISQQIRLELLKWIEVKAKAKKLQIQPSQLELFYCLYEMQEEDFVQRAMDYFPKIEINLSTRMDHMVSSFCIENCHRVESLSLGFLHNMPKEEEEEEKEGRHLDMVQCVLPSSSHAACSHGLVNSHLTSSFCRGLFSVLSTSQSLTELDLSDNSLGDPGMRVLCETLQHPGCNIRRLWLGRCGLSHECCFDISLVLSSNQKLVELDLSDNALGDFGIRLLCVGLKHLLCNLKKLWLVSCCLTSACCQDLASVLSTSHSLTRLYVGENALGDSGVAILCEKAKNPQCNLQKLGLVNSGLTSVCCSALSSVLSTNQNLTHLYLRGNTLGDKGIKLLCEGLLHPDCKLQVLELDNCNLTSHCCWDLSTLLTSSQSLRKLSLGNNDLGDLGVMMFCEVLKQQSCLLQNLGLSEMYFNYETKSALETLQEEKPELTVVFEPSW

First: Cc1ccc(-c2nnc(N[C@@H]3CCCN(CCO)C3)n3cncc23)c(OC(F)F)c1 [Compound 184, 2-[(3R)-3-({1-[2-(difluoromethoxy)-4-methylphenyl]imidazo[1,5-d][1,2,4]triazin-4-yl}amino)piperidin-1-yl]ethan-1-ol]
Second: OCCN1CCC[C@@H](Nc2nnc(-c3ccc(Cl)cc3OC(F)F)c3cncn23)C1 [Compound 192, 2-[(3R)-3-({1-[4-chloro-2-(difluoromethoxy)phenyl]imidazo[1,5-d][1,2,4]triazin-4-yl}amino)piperidin-1-yl]ethan-1-ol]
The IC50 of the first is lower: 1 to 10 nM for the first, 10 to 100 nM for the second. The first is the more potent here.

First: OCCN1CCC[C@@H](Nc2nnc(-c3ccc(C4CC4)cc3OC(F)F)c3cncn23)C1 [Compound 185, 2-[(3R)-3-({1-[4-cyclopropyl-2-(difluoromethoxy)phenyl]imidazo[1,5-d][1,2,4]triazin-4-yl}amino)piperidin-1-yl]ethan-1-ol]
Second: CN1CCC[C@@H](Nc2nnc(-c3ccc(C4CC4)cc3OC(F)F)c3cncn23)C1 [Compound 203, 1-[4-cyclopropyl-2-(difluoromethoxy)phenyl]-N-[(3R)-1-methylpiperidin-3-yl]imidazo[1,5-d][1,2,4]triazin-4-amine]
The IC50 of the first is higher: 1 to 10 nM for the first, < 1 nM for the second.

`OCCN1CCC[C@@H](Nc2nnc(-c3ccc(C(F)(F)F)cc3OC(F)F)c3cncn23)C1` [Compound 186, 2-[(3R)-3-({1-[2-(difluoromethoxy)-4-(trifluoromethyl)phenyl]imidazo[1,5-d][1,2,4]triazin-4-yl}amino)piperidin-1-yl]ethan-1-ol] and `OCCN1CCC[C@@H](Nc2nnc(-c3ccc(Br)cc3OC(F)F)c3cncn23)C1` [Compound 198, 2-[(3R)-3-({1-[4-bromo-2-(difluoromethoxy)phenyl]imidazo[1,5-d][1,2,4]triazin-4-yl}amino)piperidin-1-yl]ethan-1-ol] cannot be ordered by IC50: < 1 nM for the first, < 1 nM for the second.

`C[C@]1(O)C[C@@H](Nc2nnc(-c3ccc(C(F)(F)F)cc3OC(F)F)c3cncn23)C1` [Compound 187, (1s,3s)-3-({1-[2-(difluoromethoxy)-4-(trifluoromethyl)phenyl]imidazo[1,5-d][1,2,4]triazin-4-yl}amino)-1-methylcyclobutan-1-ol] and `C[C@]1(O)C[C@@H](Nc2nnc(-c3ccc(Cl)cc3OC(F)F)c3cncn23)C1` [Compound 194, (1s,3s)-3-({1-[4-chloro-2-(difluoromethoxy)phenyl]imidazo[1,5-d][1,2,4]triazin-4-yl}amino)-1-methylcyclobutan-1-ol] fall in the same range of IC50: 1 to 10 nM for the first, 1 to 10 nM for the second.

`FC(F)Oc1cc(C(F)(F)F)ccc1-c1nnc(N[C@@H]2CCCOC2)n2cncc12` [Compound 188, 1-[2-(difluoromethoxy)-4-(trifluoromethyl)phenyl]-N-[(3R)-oxan-3-yl]imidazo[1,5-d][1,2,4]triazin-4-amine] and `FC(F)Oc1cc(Cl)ccc1-c1nnc(N[C@@H]2CCCOC2)n2cncc12` [Compound 189, 1-[4-chloro-2-(difluoromethoxy)phenyl]-N-[(3R)-oxan-3-yl]imidazo[1,5-d][1,2,4]triazin-4-amine] fall in the same range of IC50: 10 to 100 nM for the first, 10 to 100 nM for the second.

`CN1CCC[C@@H](Nc2nnc(-c3ccc(Cl)cc3OC(F)F)c3cncn23)C1` [Compound 190, 1-[4-chloro-2-(difluoromethoxy)phenyl]-N-[(3R)-1-methylpiperidin-3-yl]imidazo[1,5-d][1,2,4]triazin-4-amine] and `CN1CCC[C@@H](Nc2nnc(-c3ccc(Br)cc3OC(F)F)c3cncn23)C1` [Compound 195, 1-[4-bromo-2-(difluoromethoxy)phenyl]-N-[(3R)-1-methylpiperidin-3-yl]imidazo[1,5-d][1,2,4]triazin-4-amine] cannot be ordered by IC50: < 1 nM for the first, < 1 nM for the second.

First: CCN1CCC[C@@H](Nc2nnc(-c3ccc(Cl)cc3OC(F)F)c3cncn23)C1 [Compound 191, 1-[4-chloro-2-(difluoromethoxy)phenyl]-N-[(3R)-1-ethylpiperidin-3-yl]imidazo[1,5-d][1,2,4]triazin-4-amine]
Second: Cc1ccc(-c2nnc(N[C@@H]3CCCN(C)C3)n3cncc23)c(OC(F)F)c1 [Compound 202, 1-[2-(difluoromethoxy)-4-methylphenyl]-N-[(3R)-1-methylpiperidin-3-yl]imidazo[1,5-d][1,2,4]triazin-4-amine]
The IC50 of the first is lower: < 1 nM for the first, 1 to 10 nM for the second.

First: CN1C[C@H](F)C[C@@H](Nc2nnc(-c3ccc(Cl)cc3OC(F)F)c3cncn23)C1 [Compound 193, 1-[4-chloro-2-(difluoromethoxy)phenyl]-N-[(3R,5R)-5-fluoro-1-methylpiperidin-3-yl]imidazo[1,5-d][1,2,4]triazin-4-amine]
Second: CCN1C[C@H](F)C[C@@H](Nc2nnc(-c3ccc(Br)cc3OC(F)F)c3cncn23)C1 [Compound 196, 1-[4-bromo-2-(difluoromethoxy)phenyl]-N-[(3R,5R)-1-ethyl-5-fluoropiperidin-3-yl]imidazo[1,5-d][1,2,4]triazin-4-amine]
The IC50 of the first is higher: 1 to 10 nM for the first, < 1 nM for the second.

`CN1CCC[C@@H](Nc2nnc(-c3ccc(C(F)(F)F)cc3OC(F)(F)F)c3cncn23)C1` [Compound 197, N-[(3R)-1-methylpiperidin-3-yl]-1-[2-(trifluoromethoxy)-4-(trifluoromethyl)phenyl]imidazo[1,5-d][1,2,4]triazin-4-amine] and `COc1ccc(-c2nnc(N[C@@H]3CCCN(C)C3)n3cncc23)c(OC(F)(F)F)c1` [Compound 208, 1-[4-methoxy-2-(trifluoromethoxy)phenyl]-N-[(3R)-1-methylpiperidin-3-yl]imidazo[1,5-d][1,2,4]triazin-4-amine] cannot be ordered by IC50: < 1 nM for the first, < 1 nM for the second.

`C[C@]1(O)C[C@@H](Nc2nnc(-c3ccc(Br)cc3OC(F)F)c3cncn23)C1` [Compound 199, (1s,3s)-3-({1-[4-bromo-2-(difluoromethoxy)phenyl]imidazo[1,5-d][1,2,4]triazin-4-yl}amino)-1-methylcyclobutan-1-ol] and `C[C@]1(O)C[C@@H](Nc2nnc(-c3ccc(Br)cc3C(F)(F)F)c3cncn23)C1` [Compound 204, (1s,3s)-3-({1-[4-bromo-2-(trifluoromethyl)phenyl]imidazo[1,5-d][1,2,4]triazin-4-yl}amino)-1-methylcyclobutan-1-ol] fall in the same range of IC50: 1 to 10 nM for the first, 1 to 10 nM for the second.

First: CN1CCC[C@@H](Nc2nnc(-c3ccc(Br)cc3C(F)(F)F)c3cncn23)C1 [Compound 200, 1-[4-bromo-2-(trifluoromethyl)phenyl]-N-[(3R)-1-methylpiperidin-3-yl]imidazo[1,5-d][1,2,4]triazin-4-amine]
Second: Cc1ccc(-c2nnc(N[C@@H]3CCCN(C)C3)n3cncc23)c(C(F)(F)F)c1 [Compound 206, N-[(3R)-1-methylpiperidin-3-yl]-1-[4-methyl-2-(trifluoromethyl)phenyl]imidazo[1,5-d][1,2,4]triazin-4-amine]
The IC50 of the first is higher: 1 to 10 nM for the first, < 1 nM for the second.

`OCCN1CCC[C@@H](Nc2nnc(-c3ccc(Br)cc3C(F)(F)F)c3cncn23)C1` [Compound 201, 2-[(3R)-3-({1-[4-bromo-2-(trifluoromethyl)phenyl]imidazo[1,5-d][1,2,4]triazin-4-yl}amino)piperidin-1-yl]ethan-1-ol] and `COc1ccc(-c2nnc(N[C@@H]3CCCN(CCO)C3)n3cncc23)c(C(F)(F)F)c1` [Compound 213, 2-[(3R)-3-({1-[4-methoxy-2-(trifluoromethyl)phenyl]imidazo[1,5-d][1,2,4]triazin-4-yl}amino)piperidin-1-yl]ethan-1-ol] fall in the same range of IC50: 1 to 10 nM for the first, 1 to 10 nM for the second.

First: CCN1C[C@H](F)C[C@@H](Nc2nnc(-c3ccc(Br)cc3C(F)(F)F)c3cncn23)C1 [Compound 205, 1-[4-bromo-2-(trifluoromethyl)phenyl]-N-[(3R,5R)-1-ethyl-5-fluoropiperidin-3-yl]imidazo[1,5-d][1,2,4]triazin-4-amine]
Second: CCN1CCC[C@@H](Nc2nnc(-c3ccc(OC)cc3C(F)(F)F)c3cncn23)C1 [Compound 212, N-[(3R)-1-ethylpiperidin-3-yl]-1-[4-methoxy-2-(trifluoromethyl)phenyl]imidazo[1,5-d][1,2,4]triazin-4-amine]
The IC50 of the first is higher: 10 to 100 nM for the first, < 1 nM for the second.

First: CN1CCC[C@@H](Nc2nnc(-c3ccc(C4CC4)cc3C(F)(F)F)c3cncn23)C1 [Compound 207, 1-[4-cyclopropyl-2-(trifluoromethyl)phenyl]-N-[(3R)-1-methylpiperidin-3-yl]imidazo[1,5-d][1,2,4]triazin-4-amine]
Second: O[C@H]1CCC[C@@H](Nc2nnc(-c3ccc(C(F)(F)F)cc3C(F)(F)F)c3cncn23)C1 [Compound 215, (1S,3R)-3-({1-[2,4-bis(trifluoromethyl)phenyl]imidazo[1,5-d][1,2,4]triazin-4-yl}amino)cyclohexan-1-ol]
The IC50 of the first is lower: < 1 nM for the first, 10 to 100 nM for the second.

`CCN1CCC[C@@H](Nc2nnc(-c3ccc(OC)cc3OC(F)(F)F)c3cncn23)C1` [Compound 209, N-[(3R)-1-ethylpiperidin-3-yl]-1-[4-methoxy-2-(trifluoromethoxy)phenyl]imidazo[1,5-d][1,2,4]triazin-4-amine] and `COc1ccc(-c2nnc(N[C@@H]3CCCN(CCO)C3)n3cncc23)c(OC(F)(F)F)c1` [Compound 211, 2-[(3R)-3-({1-[4-methoxy-2-(trifluoromethoxy)phenyl]imidazo[1,5-d][1,2,4]triazin-4-yl}amino)piperidin-1-yl]ethan-1-ol] cannot be ordered by IC50: < 1 nM for the first, < 1 nM for the second.

`COc1ccc(-c2nnc(N[C@@H]3C[C@@H](F)CN(C)C3)n3cncc23)c(OC(F)(F)F)c1` [Compound 210, N-[(3R,5R)-5-fluoro-1-methylpiperidin-3-yl]-1-[4-methoxy-2-(trifluoromethoxy)phenyl]imidazo[1,5-d][1,2,4]triazin-4-amine] and `COc1ccc(-c2nnc(N[C@H]3C[C@@](C)(O)C3)n3cncc23)c(C(F)(F)F)c1` [Compound 214, (1s,3s)-3-({1-[4-methoxy-2-(trifluoromethyl)phenyl]imidazo[1,5-d][1,2,4]triazin-4-yl}amino)-1-methylcyclobutan-1-ol] fall in the same range of IC50: 1 to 10 nM for the first, 1 to 10 nM for the second.
